Reference: paper PMC12257397, “Scaffold Hopping Strategy toward New 4‑Aminoquinazolines Active Against Extracellular and Intracellular Mycobacterium tuberculosis” (ACS Medicinal Chemistry Letters, 2025)
Converted amounts (≈) assume the structure as drawn.

Legend:
[1] = system: M. tuberculosis QcrB T313I; conditions: given in Figure 1A; cited from earlier work
[2] = system: M. tuberculosis QcrB M342T; conditions: given in Figure 1A; cited from earlier work
[3] = system: M. tuberculosis qcrCAB (A178T); conditions: given in Figure 1A; cited from earlier work
[4] = system: M. tuberculosis LP-0106898-RM1 (QcrB T313I); assay type: cell-based, Mycobacterium tuberculosis
[5] = system: M. tuberculosis LP-0497754-RM301, MmpL3 triple mutant (F255L, V646M, F644I); assay type: cell-based, Mycobacterium tuberculosis

SMILES | MIC QcrB T313I [1] [µM] | MIC QcrB M342T [2] [µM] | IC50 [3] [nM] | MIC QcrBT313I [4] [µM] | MIC MmpL3 (F255L, V646M, F644I) [5] [µM]
FC(F)(F)c1ccc(CCNc2cc(-c3ccccn3)nc3ncnn23)cc1 [1 (TAP)] | > 20 | 10 (≈ 3.84 µg/mL) | – | – | –
CCc1nc2ccc(C)cc2n1CCCNc1ccccc1 [2 (FABA)] | 8.7 (≈ 2.55 µg/mL) | 4.1 (≈ 1.2 µg/mL) | – | – | –
CCc1nc(NCCCc2ccccc2)c2cc(C)sc2n1 [3 (CWHM-1023)] | – | – | > 500 | – | –
Cc1nc(NCCc2ccccc2)c2cc(I)ccc2n1 [9d] | – | – | – | 0.67 (≈ 0.261 µg/mL) | 0.89 (≈ 0.346 µg/mL)
COc1ccc(CCNc2nc(C)nc3ccc(I)cc23)cc1 [10d] | – | – | – | 1.2 (≈ 0.503 µg/mL) | 1.5 (≈ 0.629 µg/mL)
Cc1nc(NCCc2ccc(Cl)cc2)c2cc(I)ccc2n1 [11d] | – | – | – | 0.80 (≈ 0.339 µg/mL) | 1.0 (≈ 0.424 µg/mL)
Cc1nc(NCCc2ccc(OC(F)(F)F)cc2)c2cc(Br)ccc2n1 [13c] | – | – | – | 4.0 (≈ 1.7 µg/mL) | 5.4 (≈ 2.3 µg/mL)
Cc1nc(NCCc2ccc(OC(F)(F)F)cc2)c2cc(I)ccc2n1 [13d] | – | – | – | 5.2 (≈ 2.46 µg/mL) | 8.3 (≈ 3.93 µg/mL)
Cc1ccc(CCNc2nc(C)nc3ccc(I)cc23)cc1 [15d] | – | – | – | 0.70 (≈ 0.282 µg/mL) | 0.89 (≈ 0.359 µg/mL)
CCc1ccc(CCNc2nc(C)nc3ccc(Br)cc23)cc1 [16c] | – | – | – | 2.4 (≈ 0.889 µg/mL) | 3.4 (≈ 1.26 µg/mL)
CCc1ccc(CCNc2nc(C)nc3ccc(I)cc23)cc1 [16d] | – | – | – | 1.8 (≈ 0.751 µg/mL) | 2.3 (≈ 0.96 µg/mL)
Cc1nc(NCCc2ccc3ccccc3c2)c2cc(Br)ccc2n1 [17c] | – | – | – | 2.2 (≈ 0.863 µg/mL) | 2.6 (≈ 1.02 µg/mL)
Cc1nc(NCCc2ccc3ccccc3c2)c2cc(I)ccc2n1 [17d] | – | – | – | 1.2 (≈ 0.527 µg/mL) | 1.4 (≈ 0.615 µg/mL)
Cc1nc(NCCCc2ccccc2)c2ccccc2n1 [18a] | – | – | – | 1.0 (≈ 0.277 µg/mL) | 1.2 (≈ 0.333 µg/mL)
COc1ccc2nc(C)nc(NCCCc3ccccc3)c2c1 [18b] | – | – | – | 1.3 (≈ 0.4 µg/mL) | 1.5 (≈ 0.461 µg/mL)
Cc1nc(NCCCc2ccccc2)c2cc(Br)ccc2n1 [18c] | – | – | – | <0.19 | < 0.19
Cc1nc(NCCCc2ccccc2)c2cc(I)ccc2n1 [18d] | – | – | – | 0.48 (≈ 0.194 µg/mL) | 0.64 (≈ 0.258 µg/mL)
c1ccc(CCCNc2ncnc3ccccc23)cc1 [18e] | – | – | – | 29.0 (≈ 7.64 µg/mL) | 39.0 (≈ 10.3 µg/mL)
CO[C@H]1/C=C/O[C@@]2(C)Oc3c(C)c(O)c4c(O)c(c(/C=N/N5CCN(C)CC5)c(O)c4c3C2=O)NC(=O)/C(C)=C\C=C\[C@H](C)[C@H](O)[C@@H](C)[C@@H](O)[C@@H](C)[C@H](OC(C)=O)[C@@H]1C [20 (RIF), rifampicin, reference compound] | – | – | – | 0.010 (≈ 0.00823 µg/mL) | 0.030 (≈ 0.0247 µg/mL)
